Results: ChEMBL document CHEMBL3039007, “Structure-based identification of OATP1B1/3 inhibitors” (Mol Pharmacol, 2013)

Columns and labels:
[1] = target: T1, Solute carrier organic anion transporter family member 1B1 (Homo sapiens, UniProt Q9Y6L6); conditions: chinese hamster, cho, 10 µM
T1 sequence (Q9Y6L6 whole entry): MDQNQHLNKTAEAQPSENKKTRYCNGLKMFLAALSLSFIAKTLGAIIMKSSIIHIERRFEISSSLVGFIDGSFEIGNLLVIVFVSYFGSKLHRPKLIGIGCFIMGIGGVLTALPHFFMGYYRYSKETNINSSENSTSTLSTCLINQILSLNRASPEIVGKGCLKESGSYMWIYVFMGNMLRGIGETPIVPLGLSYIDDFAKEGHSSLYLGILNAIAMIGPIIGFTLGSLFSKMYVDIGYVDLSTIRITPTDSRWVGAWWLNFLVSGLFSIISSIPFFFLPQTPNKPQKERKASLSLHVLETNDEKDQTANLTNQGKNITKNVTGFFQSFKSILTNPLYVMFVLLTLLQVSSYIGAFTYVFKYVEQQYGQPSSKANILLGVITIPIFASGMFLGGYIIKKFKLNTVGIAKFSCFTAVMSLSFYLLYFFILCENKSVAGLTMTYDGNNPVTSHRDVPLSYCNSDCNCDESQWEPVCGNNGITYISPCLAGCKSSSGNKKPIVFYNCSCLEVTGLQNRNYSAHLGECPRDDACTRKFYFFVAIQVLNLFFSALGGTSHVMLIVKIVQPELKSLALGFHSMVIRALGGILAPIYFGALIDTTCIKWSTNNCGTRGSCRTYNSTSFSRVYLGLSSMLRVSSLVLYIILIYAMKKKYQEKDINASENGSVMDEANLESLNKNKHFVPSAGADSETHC

[2] = target: T2, Solute carrier organic anion transporter family member 1B3 (Homo sapiens, UniProt Q9NPD5); conditions: chinese hamster, cho, 10 µM
T2 sequence (Q9NPD5 whole entry): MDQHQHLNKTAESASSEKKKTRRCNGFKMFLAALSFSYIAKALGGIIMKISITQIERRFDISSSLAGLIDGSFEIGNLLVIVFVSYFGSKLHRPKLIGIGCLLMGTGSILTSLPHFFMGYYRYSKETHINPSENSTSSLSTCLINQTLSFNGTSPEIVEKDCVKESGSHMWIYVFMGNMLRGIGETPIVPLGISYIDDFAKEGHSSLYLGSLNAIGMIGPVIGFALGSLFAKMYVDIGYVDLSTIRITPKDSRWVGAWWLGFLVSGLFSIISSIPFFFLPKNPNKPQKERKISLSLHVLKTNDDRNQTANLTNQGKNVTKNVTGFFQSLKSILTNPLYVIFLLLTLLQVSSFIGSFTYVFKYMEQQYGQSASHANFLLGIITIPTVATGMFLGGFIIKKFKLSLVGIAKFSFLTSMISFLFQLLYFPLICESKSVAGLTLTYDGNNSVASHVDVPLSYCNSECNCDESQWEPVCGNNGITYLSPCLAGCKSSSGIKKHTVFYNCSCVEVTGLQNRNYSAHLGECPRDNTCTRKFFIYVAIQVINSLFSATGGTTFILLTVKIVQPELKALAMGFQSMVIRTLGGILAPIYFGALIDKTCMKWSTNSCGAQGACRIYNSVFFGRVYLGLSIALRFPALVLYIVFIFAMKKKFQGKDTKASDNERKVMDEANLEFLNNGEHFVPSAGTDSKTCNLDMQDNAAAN

Row | SMILES | residual activity [1] | residual activity [2]
1 | C=C[C@@](C)(O)CCC1C(=C)CCC2[C@@](C)(CO)CCC[C@]12C (stereo partly drawn) [EPI(13)TORULOSOL] | 109% | 115.1%
2 | Oc1ccc([C@H]2Oc3cc(O)cc(O)c3C[C@H]2O)cc1 [EPIAFZELECHIN (2R,3R)(-)] | 48.25% | 26.68%
3 | COc1ccc([C@H]2Oc3cc(OC)cc(OC)c3C[C@H]2O)cc1 [EPIAFZELECHIN TRIMETHYL ETHER] | 79.64% | 113.6%
4 | C[C@]12CC[C@H](O)C[C@@H]1CC[C@@H]1[C@@H]2CC[C@]2(C)C(=O)CC[C@@H]12 [EPIANDROSTERONE] | 55.38% | 91.34%
5 | CC(=O)Oc1cc(OC(C)=O)c2c(c1)O[C@H](c1ccc(OC(C)=O)c(OC(C)=O)c1)[C@H](OC(C)=O)C2 [EPICATECHIN PENTAACETATE] | 74.79% | 76.08%
6 | CC(C)CCC[C@@H](C)[C@H]1CC[C@H]2[C@@H]3CC[C@@H]4C[C@H](O)CC[C@]4(C)[C@H]3CC[C@]12C [EPICOPROSTEROL] | 90.49% | 97.38%
7 | O=C(Oc1cc(O)cc2c1C[C@@H](OC(=O)c1cc(O)c(O)c(O)c1)[C@@H](c1cc(O)c(O)c(O)c1)O2)c1cc(O)c(O)c(O)c1 [EPIGALLOCATECHIN 3,5-DIGALLATE] | 55.31% | 82.14%
8 | Oc1cc(O)c2c(c1)O[C@H](c1cc(O)c(O)c(O)c1)[C@H](O)C2 [EPIGALLOCATECHIN] | 101.7% | 96.72%
9 | O=C(O[C@@H]1Cc2c(O)cc(O)cc2O[C@@H]1c1cc(O)c(O)c(O)c1)c1cc(O)c(O)c(O)c1 [EPIGALOCATECHIN GALLATE] | 49.04% | 45.88%
10 | C[C@@H]1C(=O)O[C@H]2[C@H]1CC[C@@]1(C)C=CC(=O)[C@@]3(C)O[C@@]213 [EPOXY (4,5alpha)-4,5-DIHYDROSANTONIN] | 91.53% | 88.69%
11 | C[C@]12CC[C@H]3C(=CCc4cc(O)ccc43)[C@@H]1CCC2=O [EQUILIN] | 88.55% | 96.05%
12 | C[C@@H](CO)NC(=O)[C@@H]1C=C2c3cccc4[nH]cc(c34)C[C@H]2N(C)C1.O=C(O)/C=C\C(=O)O [ERGONOVINE MALEATE] | 69.31% | 84.31%
13 | CC(C)[C@@H](C)/C=C/[C@@H](C)[C@H]1CC[C@H]2C3=CCC4CC(=O)CC[C@]4(C)[C@H]3CC[C@]12C (stereo partly specified) [ERGOSTA-7,22-DIEN-3-ONE] | 71.12% | 94.39%
14 | CC(C)[C@@H](C)/C=C/[C@@H](C)[C@H]1CC[C@H]2C3=CC=C4C[C@@H](O)CC[C@]4(C)[C@H]3CC[C@]12C [ERGOSTEROL] | 31.68% | 52.34%
15 | CS(=O)(=O)CCCCN=C=S [ERYSOLIN] | 108.6% | 72.62%
16 | CN(C)CCC[C@@]1(c2ccc(F)cc2)OCc2cc(C#N)ccc21.O=C(O)C(=O)O [ESCITALOPRAM OXALATE] | 102.3% | 117.8%
17 | O=c1ccc2cc(O)c(O)cc2o1 [ESCULETIN] | 111.1% | 105.3%
18 | C[C@]12CC[C@@H]3c4ccc(O)cc4CC[C@H]3[C@@H]1CC[C@@H]2OC(=O)CCC1CCCC1 [ESTRADIOL CYPIONATE] | 81.59% | 90.49%
19 | COc1ccc2c(c1)CC[C@@H]1[C@@H]2CC[C@]2(C)[C@@H](O)CC[C@@H]12 [ESTRADIOL METHYL ETHER] | 137.4% | 110%
20 | CCCCC(=O)O[C@H]1CC[C@H]2[C@@H]3CCc4cc(O)ccc4[C@H]3CC[C@]12C [ESTRADIOL VALERATE] | 291.5% | 129.8%
21 | C[C@]12CC[C@@H]3c4ccc(O)cc4CC[C@H]3[C@@H]1CC[C@@H]2O [ESTRADIOL] | 125.9% | 131.9%
22 | C[C@]12CC[C@@H]3c4ccc(O)cc4CC[C@H]3[C@@H]1C[C@@H](O)[C@@H]2O [ESTRIOL] | 110.2% | 102.7%

Row | SMILES | residual activity [1] | residual activity [2]
23 | CC(=O)Oc1ccc2c(c1)CCC1C2CC[C@]2(C)C(=O)CCC12 (stereo partly specified) [ESTRONE ACETATE] | 204.8% | 109.5%
24 | C[C@]12CCC3c4ccc(OC(=O)c5ccccc5)cc4CCC3C1CCC2=O (stereo partly specified) [ESTRONE BENZOATE] | 121% | 95.01%
25 | O=C(Cn1ccnc1[N+](=O)[O-])NCCO [ETANIDAZOLE] | 72.81% | 76.09%
26 | C=C(CC)C(=O)c1ccc(OCC(=O)O)c(Cl)c1Cl [ETHACRYNIC ACID] | 171.8% | 111.8%
27 | C#C[C@]1(O)CC[C@H]2[C@@H]3CCc4cc(O)ccc4[C@H]3CC[C@@]21C [ETHINYL ESTRADIOL] | 13.12% | 61.16%
28 | CCN(CC)C(C)CN1c2ccccc2Sc2ccccc21.Cl (stereo unspecified) [ETHOPROPAZINE HYDROCHLORIDE] | 60.6% | 85.68%
29 | CCC1(C)CC(=O)NC1=O (stereo unspecified) [ETHOSUXIMIDE] | 137.5% | 102.9%
30 | CCOC(=O)c1c(C)cc(OC)cc1O [ETHYL EVERNINATE] | 111.1% | 102.6%
31 | CCOC(=O)c1c(C)cc(O)c(C=O)c1O [ETHYL HEMATOMMATE] | 61.89% | 77.96%
32 | CCC(N)C(O)c1ccc(O)c(O)c1.Cl (stereo unspecified) [ETHYLNOREPINEPHRINE HYDROCHLORIDE] | 130.8% | 104.2%
33 | CCc1cccc2c3c([nH]c12)C(CC)(CC(=O)O)OCC3 (stereo unspecified) [ETODOLAC] | 68.27% | 103.6%
34 | Cn1c(=O)c2c(ncn2CCO)n(C)c1=O [ETOFYLLINE] | 64.41% | 86.25%
35 | CC1CC(OC(=O)C(O)c2ccccc2)CC(C)(C)N1C.Cl (stereo unspecified) [EUCATROPINE HYDROCHLORIDE] | 84.86% | 107.8%
36 | C[n+]1c2cc(N)ccc2cc2ccc(N)cc21.[Cl-] [EUFLAVINE] | 105.1% | 93.94%
37 | Cc1cc(=O)c2c(O)c(C)c(O)cc2o1 [EUGENITOL] | 77.61% | 88.28%
38 | C=CCc1ccc(O)c(OC)c1 [EUGENOL] | 106% | 104.3%
39 | C=C(C)c1cc2cc(C(C)=O)c(O)cc2o1 [EUPARIN] | 94.93% | 98.85%
40 | COc1ccc(-c2cc(=O)c3c(O)c(OC)c(OC)cc3o2)cc1O [EUPATORIN] | 87.53% | 72.8%
41 | COc1cc(C)c(C(=O)O)c(O)c1 [EVERNINIC ACID] | 82.73% | 90.88%
42 | COc1c2ccoc2nc2c(OC)c(OCC(O)C(C)(C)O)ccc12 (stereo unspecified) [EVOXINE] | 94% | 94.63%
43 | CCCCCCOc1ccccc1C(N)=O [EXALAMIDE] | 188.8% | 129.1%
